From patent publication US20240342148A1, “METHODS OF TREATING FACIOSCAPULOHUMERAL MUSCULAR DYSTROPHY WITH LOSMAPIMOD” (Fulcrum Therapeutics, Inc., priority 2021, published 2024)

Legend:
subjects with FSHD [1] = test: Timed Up and Go (TUG); format: in vivo, human; details: nonsignificant
Protocol: (§1) TUG assessments were performed at all visits, except for Wk16. The TUG test is a simple test that is used to assess a subject's mobility and requires both static and dynamic balance. TUG is a validated instrument that measures the time that a person takes to rise from a chair, walk 3 meters, turn around, walk back to the chair, and sit down. Subjects used their regular footwear, and their customary walking aid (no walkers allowed). Patients were also timed in a modified test (FSHD TUG), where they started from a supine position, then sat up, completed the TUG, and lay down again.

subjects with FSHD [2] = test: Motor Function Measure Domain 1 (MFM); parameters: species or system human; details: in vivo
Protocol: MFM domain 1 assessments were performed at all visits, except for those on Wk4 and Wk16. The MFM scale assesses the severity of motor deficit. Domain 1 of the MFM provides an assessment of functional impairment for standing and transfers.

subjects with FSHD [3] = test: Hand-held dynamometry, maximum voluntary isometric contraction (MVICT); format: in vivo, human
Protocol: Quantitative isometric dynamometry strength assessments were performed at all visits, except for Week 16. The MicroFET2 hand-held dynamometer was used to measure strength in the bilateral shoulders, elbow flexors and extensors, and ankle dorsiflexors. The Jamar Plus Digital Hand Dynamometer was used to measure bilateral grip strengths. Standard physical therapy techniques were used. Assessment of maximum voluntary isometric contraction (MVICT) was conducted with a hand-held dynamometer.

subjects with FSHD [4] = test: FSHD health index (FSHD-HI); parameters: species or system human; details: in vivo
Protocol: The FSHD health index questionnaire was administered at all visits except for Wk16. This is a FSHD-specific patient-reported measure of disease burden on activities of daily living, quality of life, and symptom prevalence and severity. It consists of a questionnaire with 116 items developed from qualitative interviews of patients followed by a national cross-sectional validation study. The measure consists of 14 subscales that measure a patient's perception of their ambulation and mobility, hand function, shoulder and arm function, emotional health, back/chest/abdomen strength, fatigue, pain, eating function, ability to do activities, communication ability, satisfaction in social situations, performance in social situations, body image and cognition. Scoring was performed centrally by the developer.

patients with FSHD1 = test: Wearable sensor (Actimyo) physical activity, open label study; format: in vivo, human; details: over 1 year treatment; Mild or Upper group compared to Lower or Both group
Protocol: This study evaluated feasibility to monitor daily activity and assess functional outcomes using wearable sensor devices in an open label study (OLS) of losmapimod in facioscapulohumeral muscular dystrophy (FSHD). 14 patients with FSHD1 received 15 mg losmapimod twice per day for a 52 week open label treatment period.
Feasibility was measured by the reliability of the data over time and amount of background noise. The secondary objective was patients' compliance with using the wearable device.
Upper limb and lower limb mobility were evaluated with “Actimyo” made by Sysnav. Actimyo quantifies movements of patients with neuromuscular disorders such as Duchenne muscular dystrophy (DMD), Spinal amyotrophy (SMA), Parkinson's and records activity based on magneto-inertial navigation. Raw data from the sensors are loaded on to the internal memory of the docking station/charging unit, and transmitted daily via an internet connection to a remote storage platform. Participants are provided with two watch like sensors to measure movements: On the ankle for lower extremity movements like gait; and On the wrist for upper extremity movements like mobility. Two kinds of movements were evaluated: Free living movement, which was recorded by wearing two devices all day (12-16 hours); and Imposed movements (2 times per day), which were a set of movements evaluated twice daily.

subjects with FSHD [5] = test: FSHD-TUG; parameters: species or system human; details: in vivo
Protocol: as §1

subjects with FSHD1 = test: Muscle ultrasound echogenicity, open-label study in FSHD1; format: in vivo, human
Protocol: Fourteen subjects age 18 to 65 years with genetically confirmed FSHD1, clinical severity score of 2 to 4 (range 0-5) and MRI-eligible skeletal muscles for needle biopsy received open-label 15 mg twice daily losmapimod for 52 weeks with the primary objective of safety. Assessments included safety, MRI, muscle ultrasound (US), clinical outcomes, and PROs. US was performed on 7 muscles bilaterally using a standardized protocol. US echointensity was expressed as a z-score relative to matched healthy controls, with abnormal being defined as >2.

[6] = Muscle losmapimod concentrations in needle biopsies; format: in vivo; details: human, po, 15 mg BID, 15 mg orally BID
Protocol: Muscle needle biopsies were performed using the Bergstrom needle or fine needle at D1 and Wk16, or Wk36 if the muscle biopsy could not be performed at Wk16. The choice of the muscle(s) to be biopsied was determined by the investigator, informed by MRI taken during screening. Only those STIR+ muscles with 10%≤MFF≤40% were eligible for biopsy. […] The bilateral vastus lateralis, vastus medialis, lateral gastrocnemius, medial gastrocnemius, and tibialis anterior were evaluated for eligibility by MRI using a central reader. The Wk16 or Wk36 muscle needle biopsies were performed in the same approximate location as the pretreatment (D1) muscle biopsy. At baseline, MRI fiducials were placed in order to identify the location for the needle biopsy. Coordinates in reference to the closest fiducial defined the location for the muscle biopsy. […] Approximately 15-40 mg of tissue was obtained at each biopsy and frozen in liquid nitrogen within 60 seconds after excision and stored at −80° C. (SciSafe Inc. Billerica, MA, USA) until analysis.
Plasma and muscle losmapimod concentrations were measured by 2 validated bioanalytical high-performance liquid chromatography methods by PPD, USA (PPD 2019).

[7] = open-label 15 mg twice daily, 52 weeks

Cc1c(F)cc(C(=O)NC2CC2)cc1-c1ccc(C(=O)NCC(C)(C)C)cn1 [losmapimod, 6-(5-cyclopropylcarbamoyl-3-fluoro-2-methyl-phenyl)-N-(2,2-dimethylpropyl-)-nicotinamide]
Progression in TUG time (subjects with FSHD [1]): 0.16 s
TUG time difference vs placebo (subjects with FSHD [1]): 0.58 s
MFM total score vs placebo (subjects with FSHD [2]): no difference
MVICT strength change, ankle dorsiflexors, left ankle (subjects with FSHD [3]; Wk48, post-hoc): 27.17%
MVICT strength change, ankle dorsiflexors, right ankle (subjects with FSHD [3]; Wk48, post-hoc): 12.72%
MVICT strength change, shoulder abductors, non-dominant shoulder (subjects with FSHD [3]; Wk48, post-hoc): 17.85%
MVICT strength change, shoulder abductors, dominant shoulder (subjects with FSHD [3]; Wk48, post-hoc, ns): −3.79%
MVICT difference vs placebo, non-dominant shoulder (subjects with FSHD [3]; Wk48, post-hoc, p<0.01): 34.89
MVICT difference vs placebo, right ankle (subjects with FSHD [3]; Wk48, post-hoc, p<0.05): 38.39
MVICT difference vs placebo, left ankle (subjects with FSHD [3]; Wk48, post-hoc, p=0.11): 37.37
Average or MVICT in other muscle groups (bilateral hand grip, elbow flexors or extensors) (subjects with FSHD [3]; vs placebo): No difference
FSHD-HI vs placebo (subjects with FSHD [4]): no difference
Physical function as measured by gait velocity (patients with FSHD1): tends to increase
FSHD-TUG vs placebo (subjects with FSHD [5]): no difference
Mean (SD) change from baseline in echogenicity of all muscles (subjects with FSHD1; [7]): -0.17 (0.9) z-score
Mean (SD) change from baseline in echogenicity, lower extremities (subjects with FSHD1; [7]): −0.13 (1.0) z-score
Mean (SD) change from baseline in echogenicity, upper extremity muscles (subjects with FSHD1; [7]): −0.32 (0.9) z-score
Distribution of echogenicity z-scores of muscles at baseline versus the last visit (subjects with FSHD1; z-score classes <2, 2-4, 4-6, >6): stayed the same or decreased
concentration at 16 weeks ([6]; Wk16 biopsy, read-out: Concentrations in muscles at Wk16): 61 ± 7.7 ng/g
concentration at 36 weeks ([6]; Wk36 biopsy, read-out: Concentrations in muscles at Wk36): 91.1 ± 10.7 ng/g
